This passage reports IC50 and EC50 results from patent publication US9115151B2, “Substituted 2,10-dihydro-9-oxa-1,2,4A-triazaphenanthren-3-ones and uses thereof” (AbbVie Inc., priority 2012, dated 2015).

One assay deals with T1, PKCθ (Homo sapiens, UniProt Q04759).
T1 construct: His6; purchased Millipore; host or cells: baculovirus in Sf21 cells
The assay is described as follows: In vitro enzyme assay (time-resolved fluorescence kinase assay), PKCθ, 100 μM ATP. Type of assay: biochemical. The method in brief:
(§1)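 Read-out was time-resolved fluorescence, corrected for a minus-enzyme blank and converted to percent activity relative to enzyme without drug. They were stopped with EDTA.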

In another assay the target is T2, PKCα (Homo sapiens, UniProt P17252).
T2 construct: His6; purchased Millipore; host or cells: baculovirus in Sf21 cells
Put plainly: In vitro enzyme assay (time-resolved fluorescence kinase assay), PKCα, 100 μM ATP. The class given is biochemical. Conditions: 100 μM ATP; read-out: PKCα enzyme IC50. The method in brief: as §1

In assay [1] the test system is CD3/CD28 induced IL-2 in human T-Blasts. The assay is described as follows: T-Blasts CD3/CD28 induced IL-2 assay. Type of assay: cell-based. Conditions: read-out: CD3/CD28-stimulated IL2 in T-blasts EC50. Summed up: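 IL-2 in supernatants read after 24 h 37° C stimulation of human PHA T-blasts (2×10^5/well) with anti-CD3/anti-CD28 at 5 μg/mL final. Duplicate eight-point, 1/3-step compound series added 30 min before stimulus; residual cells checked by MTT for toxicity.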

Structures are written as SMILES. Some results are limits rather than exact numbers.

T1 sequence (Q04759 whole entry): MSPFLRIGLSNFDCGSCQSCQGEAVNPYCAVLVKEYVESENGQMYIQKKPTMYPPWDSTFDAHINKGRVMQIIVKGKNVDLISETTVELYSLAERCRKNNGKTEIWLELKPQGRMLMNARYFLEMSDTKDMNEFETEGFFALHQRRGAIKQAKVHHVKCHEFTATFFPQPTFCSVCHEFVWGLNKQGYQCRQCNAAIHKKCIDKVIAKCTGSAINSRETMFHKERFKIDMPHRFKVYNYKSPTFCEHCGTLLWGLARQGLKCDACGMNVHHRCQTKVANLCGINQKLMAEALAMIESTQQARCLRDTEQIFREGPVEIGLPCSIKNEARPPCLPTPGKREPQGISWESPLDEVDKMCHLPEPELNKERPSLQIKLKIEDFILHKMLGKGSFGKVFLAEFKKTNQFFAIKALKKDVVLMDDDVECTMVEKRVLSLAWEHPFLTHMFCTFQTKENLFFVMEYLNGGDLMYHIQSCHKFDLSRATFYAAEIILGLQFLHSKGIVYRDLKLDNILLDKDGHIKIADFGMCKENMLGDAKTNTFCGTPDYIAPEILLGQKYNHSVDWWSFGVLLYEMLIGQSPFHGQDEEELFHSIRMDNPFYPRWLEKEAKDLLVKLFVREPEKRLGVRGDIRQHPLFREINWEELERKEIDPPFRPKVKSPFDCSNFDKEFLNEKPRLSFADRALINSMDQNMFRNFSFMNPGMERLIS

As usually defined, the IC50 is the concentration that gives 50% inhibition. For `CC1C(=O)NN=C2COc3ccc(NC4(C(C)C)CNC4)cc3N21` (stereo not drawn) [Example 113, 9-((3-Isopropylazetidin-3-yl)amino)-1-methyl-3,5-dihydrobenzo[5,6][1,4]oxazino[3,4-c][1,2,4]triazin-2(1H)-one trifluoroacetic acid], the concentration for half-maximal inhibition (IC50) against PKCθ was below 250 nM; on PKCα, 1000 to 10000 nM. For the same compound, the EC50 in assay [1] was below 250 nM.
Take `CC1C(=O)NN=C2COc3c(cc(NC4CNC4)c(F)c3F)N21` (stereo not drawn) [Example 114, 9-(Azetidin-3-ylamino)-7,8-difluoro-1-methyl-3,5-dihydrobenzo[5,6][1,4]oxazino[3,4-c][1,2,4]triazin-2(1H)-one trifluoroacetic acid]: the IC50 on PKCθ was below 250 nM; at PKCα, 1000 to 10000 nM. Besides, the EC50 in assay [1] was below 250 nM.
With `Cc1cc2c(cc1N1CCC13CCNCC3)N1C(=NNC(=O)C1C)CO2` (stereo not drawn) [Example 115, 1,8-Dimethyl-9-(1,7-diazaspiro[3.5]nonan-1-yl)-3,5-dihydrobenzo[5,6][1,4]oxazino[3,4-c][1,2,4]triazin-2(1H)-one trifluoroacetic acid], the 50% inhibitory concentration (IC50) was below 250 nM against PKCθ and 1000 to 10000 nM at PKCα. Moreover, the EC50 in assay [1] is below 250 nM.
Turning to `CC1C(=O)NN=C2COc3cc(C(F)(F)F)c(C4CCNC(Cc5ccccc5)C4)cc3N21` (stereo not drawn) [Example 116, 9-(2-Benzylpiperidin-4-yl)-1-methyl-8-(trifluoromethyl)-3,5-dihydrobenzo[5,6][1,4]oxazino[3,4-c][1,2,4]triazin-2(1H)-one trifluoroacetic acid], the concentration for half-maximal inhibition (IC50) on PKCθ is below 250 nM; on PKCα it was 1000 to 10000 nM. In addition, the EC50 in assay [1] was 250 to 1000 nM.
On to `CC1C(=O)NN=C2COc3ccc(N4CCCC4CN)cc3N21` (stereo not drawn) [Example 117, 6-(2-Aminomethyl-pyrrolidin-1-yl)-4-methyl-2,10-dihydro-9-oxa-1,2,4a-triaza-phenanthren-3-one trifluoroacetic acid], for which the IC50 is below 250 nM against PKCθ and 1000 to 10000 nM on PKCα. For the same compound, the EC50 in assay [1] was 250 to 1000 nM.
Take `CC1C(=O)NN=C2COc3cc(-c4ccccc4)c(C4CCNCC4)cc3N21` (stereo not drawn) [Example 119, 1-Methyl-8-phenyl-9-(piperidin-4-yl)-3,5-dihydrobenzo[5,6][1,4]oxazino[3,4-c][1,2,4]triazin-2(1H)-one trifluoroacetic acid]: the IC50 on PKCθ is below 250 nM; at PKCα, 1000 to 10000 nM. In addition, in assay [1], the EC50 is below 250 nM.
In the case of `CC1C(=O)NN=C2COc3cc(C(F)(F)F)c(C4CCNCC4)cc3N21` (stereo not drawn) [Example 120, 1-Methyl-9-(piperidin-4-yl)-8-(trifluoromethyl)-3,5-dihydrobenzo[5,6][1,4]oxazino[3,4-c][1,2,4]triazin-2(1H)-one trifluoroacetic acid], the half-maximal inhibitory concentration (IC50) on PKCθ is below 250 nM; on PKCα, 1000 to 10000 nM. The EC50 in assay [1] fell in the range of 250 to 1000 nM.
As to `Cc1cc2c(cc1NC1CNC1)N1C(=NNC(=O)C1C)CO2` (stereo not drawn) [Example 122, 9-(Azetidin-3-ylamino)-1,8-dimethyl-3,5-dihydrobenzo[5,6][1,4]oxazino[3,4-c][1,2,4]triazin-2(1H)-one ditrifluoroacetic acid], the IC50 is below 250 nM on PKCθ and 1000 to 10000 nM on PKCα. The EC50 in assay [1] lay within 1000 to 10000 nM.
For the compound `CC1C(=O)NN=C2COc3cc(F)c(OC4CNC4)cc3N21` (stereo not drawn) [Example 123, 9-(Azetidin-3-yloxy)-8-fluoro-1-methyl-3,5-dihydrobenzo[5,6][1,4]oxazino[3,4-c][1,2,4]triazin-2(1H)-one trifluoroacetic acid], the half-maximal inhibitory concentration (IC50) against PKCθ fell in the range of 250 to 1000 nM; on PKCα, 1000 to 10000 nM. Moreover, in assay [1], the EC50 is 1000 to 10000 nM.
As to `C[C@@H]1C(=O)NN=C2COc3cc(F)c(OC4CNC4)cc3N21` [Example 124, (R)-9-(Azetidin-3-yloxy)-8-fluoro-1-methyl-3,5-dihydrobenzo[5,6][1,4]oxazino[3,4-c][1,2,4]triazin-2(1H)-one trifluoroacetic acid], the IC50 against PKCθ is below 250 nM; at PKCα, 1000 to 10000 nM. In assay [1], the EC50 was below 250 nM.
Consider `Cc1cc2c(cc1NC1CN(C)C1)N1C(=NNC(=O)C1C)CO2` (stereo not drawn) [Example 125, 1,8-Dimethyl-9-((1-methylazetidin-3-yl)amino)-3,5-dihydrobenzo[5,6][1,4]oxazino[3,4-c][1,2,4]triazin-2(1H)-one trifluoroacetic acid], for which the results for the IC50 on PKCθ and on PKCα were below 250 nM and 1000 to 10000 nM, respectively. Moreover, the EC50 in assay [1] is 250 to 1000 nM.
In the same order, the values of `CC(C)N1CC(C)(Nc2cc3c(cc2C2CCOCC2)OCC2=NNC(=O)C(C)N23)C1` (stereo not drawn) [Example 126, 9-((1-Isopropyl-3-methylazetidin-3-yl)amino)-1-methyl-8-(tetrahydro-2H-pyran-4-yl)-3,5-dihydrobenzo[5,6][1,4]oxazino[3,4-c][1,2,4]triazin-2(1H)-one trifluoroacetic acid] are below 250 nM, 1000 to 10000 nM and 250 to 1000 nM.
Regarding `CC1C(=O)NN=C2COc3cc(OCc4ccccc4)c(NC4CNC4)cc3N21` (stereo not drawn) [Example 127, 6-(Azetidin-3-ylamino)-7-benzyloxy-4-methyl-2,10-dihydro-9-oxa-1,2,4a-triaza-phenanthren-3-one trifluoroacetic acid], the figures for the IC50 against PKCθ and at PKCα were below 250 nM and 1000 to 10000 nM, respectively. Also, the EC50 in assay [1] was 250 to 1000 nM.
On to `CC1C(=O)NN=C2COc3cc(Nc4ccccc4)c(NC4CNC4)cc3N21` (stereo not drawn) [Example 128, 6-(Azetidin-3-ylamino)-4-methyl-7-phenylamino-2,10-dihydro-9-oxa-1,2,4a-triaza-phenanthren-3-one trifluoroacetic acid], for which the IC50 on PKCθ was below 250 nM; at PKCα it was 1000 to 10000 nM. Further, in assay [1], the EC50 is 250 to 1000 nM.
Taken in the same sequence, the figures for `CC1C(=O)NN=C2COc3ccc(C(C)C4(C)CNC4)cc3N21` (stereo not drawn) [Example 129, 1-Methyl-9-(1-(3-methylazetidin-3-yl)ethyl)-3,5-dihydrobenzo[5,6][1,4]oxazino[3,4-c][1,2,4]triazin-2(1H)-one trifluoroacetic acid] were below 250 nM, 1000 to 10000 nM and 250 to 1000 nM.
Regarding `C[C@@H]1C(=O)NN=C2COc3cc(-c4c(F)cccc4N4CCNCC4)ccc3N21` [Example 130, (R)-7-(2-Fluoro-6-piperazin-1-yl-phenyl)-4-methyl-2,10-dihydro-9-oxa-1,2,4a-triaza-phenanthren-3-one trifluoroacetic acid], the concentration for half-maximal inhibition (IC50) fell in the range of 250 to 1000 nM against PKCθ and 1000 to 10000 nM at PKCα. For the same compound, the EC50 in assay [1] lay within 250 to 1000 nM.
`C[C@@H]1C(=O)NN=C2COc3cc(-c4c(Cl)cccc4N4CCNCC4)ccc3N21` [Example 131]: the values for the 50% inhibitory concentration (IC50) against PKCθ and on PKCα were below 250 nM and 1000 to 10000 nM, respectively. Besides, the EC50 in assay [1] is 250 to 1000 nM.
On to `C[C@@H]1C(=O)NN=C2COc3cc(-c4c(N5CCNCC5)ccc(Cl)c4Cl)ccc3N21` [Example 132], for which the IC50 was below 250 nM at PKCθ and 1000 to 10000 nM on PKCα. Besides, in assay [1], the EC50 is 250 to 1000 nM.
As to `CC(C)c1cc2c(cc1[C@@H](C)C1(C)CNC1)N1C(=NNC(=O)[C@H]1C)CO2` [Example 133, (R)-7-Isopropyl-4-methyl-6-[(R)-1-(3-methyl-azetidin-3-yl)-ethyl]-2,10-dihydro-9-oxa-1,2,4a-triaza-phenanthren-3-one hydrochloric acid], the 50% inhibitory concentration (IC50) against PKCθ is 250 to 1000 nM; at PKCα, 1000 to 10000 nM. The EC50 in assay [1] fell in the range of 250 to 1000 nM.
